From ChEMBL document CHEMBL5579855 (J Med Chem, 2024)

Experiments:
[1] = tested on: PANC-1; experiment: Antitumor activity against human PANC-1 cells xenografted in male BALB/c/Nu/Nu assessed as reduction in tumor growth inhibition at 4 mg/kg, ip and measured every 2 days for 21 days; settings: Mus musculus, PANC-1, 48 h, read-out: TGI
[2] = tested on: PANC-1; experiment: cells; settings: Homo sapiens, PANC-1, 96 h
Description: Antiproliferative activity against human PANC-1 cells assessed as inhibition of cell growth incubated for 96 hrs by CCK-8 cell viability assay

[3] = tested on: MDA-MB-231; experiment: cells; settings: Homo sapiens, MDA-MB-231, 96 h
Description: Antiproliferative activity against human MDA-MB-231 cells assessed as inhibition of cell growth incubated for 96 hrs by CCK-8 cell viability assay

[4] = target: T1, Histone-lysine N-methyltransferase NSD2 (Homo sapiens, UniProt O96028); experiment: Inhibition of NSD2 (unknown origin) by AlphaLISA assay
T1 sequence (O96028 whole entry): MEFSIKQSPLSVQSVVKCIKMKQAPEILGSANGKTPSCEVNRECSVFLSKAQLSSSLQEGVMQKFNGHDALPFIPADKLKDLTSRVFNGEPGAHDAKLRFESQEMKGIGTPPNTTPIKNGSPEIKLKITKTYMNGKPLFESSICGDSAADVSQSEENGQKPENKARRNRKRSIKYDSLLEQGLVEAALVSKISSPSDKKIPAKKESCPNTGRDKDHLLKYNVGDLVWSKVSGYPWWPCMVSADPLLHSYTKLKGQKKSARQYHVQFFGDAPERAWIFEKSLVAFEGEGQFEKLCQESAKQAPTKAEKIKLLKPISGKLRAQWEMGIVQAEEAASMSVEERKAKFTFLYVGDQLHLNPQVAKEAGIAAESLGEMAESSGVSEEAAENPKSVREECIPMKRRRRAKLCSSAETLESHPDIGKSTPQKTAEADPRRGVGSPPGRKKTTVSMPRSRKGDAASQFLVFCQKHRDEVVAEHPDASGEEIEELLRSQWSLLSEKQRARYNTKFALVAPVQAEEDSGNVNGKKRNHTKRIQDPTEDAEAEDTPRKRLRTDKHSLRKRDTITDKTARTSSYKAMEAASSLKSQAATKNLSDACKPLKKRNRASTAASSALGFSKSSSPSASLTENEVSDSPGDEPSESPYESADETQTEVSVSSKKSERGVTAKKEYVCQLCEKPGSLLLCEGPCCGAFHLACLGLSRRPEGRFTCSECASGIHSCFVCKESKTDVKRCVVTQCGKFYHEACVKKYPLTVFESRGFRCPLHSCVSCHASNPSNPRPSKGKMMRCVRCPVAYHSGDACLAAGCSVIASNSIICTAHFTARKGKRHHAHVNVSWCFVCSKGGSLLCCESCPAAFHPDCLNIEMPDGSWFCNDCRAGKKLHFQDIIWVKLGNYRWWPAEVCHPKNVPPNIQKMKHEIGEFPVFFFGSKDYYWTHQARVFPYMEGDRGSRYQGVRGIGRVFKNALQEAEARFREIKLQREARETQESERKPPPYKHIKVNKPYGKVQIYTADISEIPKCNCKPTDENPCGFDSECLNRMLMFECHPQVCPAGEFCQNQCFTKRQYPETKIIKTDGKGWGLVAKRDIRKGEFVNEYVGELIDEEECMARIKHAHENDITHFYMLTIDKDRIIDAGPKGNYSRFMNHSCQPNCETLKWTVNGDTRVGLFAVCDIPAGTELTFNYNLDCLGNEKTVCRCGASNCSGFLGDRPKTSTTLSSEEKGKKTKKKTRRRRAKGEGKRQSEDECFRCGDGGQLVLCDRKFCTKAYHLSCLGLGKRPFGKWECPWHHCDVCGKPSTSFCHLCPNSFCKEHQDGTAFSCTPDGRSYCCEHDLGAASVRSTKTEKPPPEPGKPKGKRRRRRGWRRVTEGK

[5] = target: T2, Histone-lysine N-methyltransferase EHMT2 (Homo sapiens, UniProt Q96KQ7); experiment: Inhibition of G9a (unknown origin) by AlphaLISA assay
T2 sequence (Q96KQ7 whole entry): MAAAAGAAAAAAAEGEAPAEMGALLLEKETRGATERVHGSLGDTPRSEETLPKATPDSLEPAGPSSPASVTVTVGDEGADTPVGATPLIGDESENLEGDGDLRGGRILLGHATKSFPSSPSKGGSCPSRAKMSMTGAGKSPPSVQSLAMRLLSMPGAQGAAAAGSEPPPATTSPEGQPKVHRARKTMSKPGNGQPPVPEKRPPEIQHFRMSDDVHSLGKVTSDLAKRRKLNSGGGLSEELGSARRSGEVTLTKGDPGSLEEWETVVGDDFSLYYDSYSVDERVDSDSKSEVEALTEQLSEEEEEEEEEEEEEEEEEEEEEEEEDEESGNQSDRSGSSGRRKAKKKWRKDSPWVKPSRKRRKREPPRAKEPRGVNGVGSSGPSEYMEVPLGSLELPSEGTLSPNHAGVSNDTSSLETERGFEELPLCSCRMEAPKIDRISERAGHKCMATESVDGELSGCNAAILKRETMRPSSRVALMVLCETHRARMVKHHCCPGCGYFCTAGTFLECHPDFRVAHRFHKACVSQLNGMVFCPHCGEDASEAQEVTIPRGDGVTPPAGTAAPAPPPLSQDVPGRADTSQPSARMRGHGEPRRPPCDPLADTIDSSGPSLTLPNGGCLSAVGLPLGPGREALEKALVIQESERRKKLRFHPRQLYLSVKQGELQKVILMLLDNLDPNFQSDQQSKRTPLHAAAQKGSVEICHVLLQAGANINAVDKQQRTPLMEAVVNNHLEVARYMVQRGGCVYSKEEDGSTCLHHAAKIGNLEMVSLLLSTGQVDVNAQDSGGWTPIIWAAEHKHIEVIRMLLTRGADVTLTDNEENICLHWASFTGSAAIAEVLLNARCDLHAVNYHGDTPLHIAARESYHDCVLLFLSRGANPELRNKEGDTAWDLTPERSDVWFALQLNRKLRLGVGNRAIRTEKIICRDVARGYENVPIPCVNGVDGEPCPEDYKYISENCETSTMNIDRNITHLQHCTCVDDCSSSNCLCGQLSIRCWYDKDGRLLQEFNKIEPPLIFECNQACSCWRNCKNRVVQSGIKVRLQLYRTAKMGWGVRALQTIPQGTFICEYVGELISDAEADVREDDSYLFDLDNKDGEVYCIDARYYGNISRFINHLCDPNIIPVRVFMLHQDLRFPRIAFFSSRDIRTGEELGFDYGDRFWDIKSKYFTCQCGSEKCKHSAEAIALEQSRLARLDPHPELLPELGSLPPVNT

[6] = target: T3, Histone-lysine N-methyltransferase EHMT1 (Homo sapiens, UniProt Q9H9B1); experiment: Inhibition of GLP (unknown origin)
T3 sequence (Q9H9B1 whole entry): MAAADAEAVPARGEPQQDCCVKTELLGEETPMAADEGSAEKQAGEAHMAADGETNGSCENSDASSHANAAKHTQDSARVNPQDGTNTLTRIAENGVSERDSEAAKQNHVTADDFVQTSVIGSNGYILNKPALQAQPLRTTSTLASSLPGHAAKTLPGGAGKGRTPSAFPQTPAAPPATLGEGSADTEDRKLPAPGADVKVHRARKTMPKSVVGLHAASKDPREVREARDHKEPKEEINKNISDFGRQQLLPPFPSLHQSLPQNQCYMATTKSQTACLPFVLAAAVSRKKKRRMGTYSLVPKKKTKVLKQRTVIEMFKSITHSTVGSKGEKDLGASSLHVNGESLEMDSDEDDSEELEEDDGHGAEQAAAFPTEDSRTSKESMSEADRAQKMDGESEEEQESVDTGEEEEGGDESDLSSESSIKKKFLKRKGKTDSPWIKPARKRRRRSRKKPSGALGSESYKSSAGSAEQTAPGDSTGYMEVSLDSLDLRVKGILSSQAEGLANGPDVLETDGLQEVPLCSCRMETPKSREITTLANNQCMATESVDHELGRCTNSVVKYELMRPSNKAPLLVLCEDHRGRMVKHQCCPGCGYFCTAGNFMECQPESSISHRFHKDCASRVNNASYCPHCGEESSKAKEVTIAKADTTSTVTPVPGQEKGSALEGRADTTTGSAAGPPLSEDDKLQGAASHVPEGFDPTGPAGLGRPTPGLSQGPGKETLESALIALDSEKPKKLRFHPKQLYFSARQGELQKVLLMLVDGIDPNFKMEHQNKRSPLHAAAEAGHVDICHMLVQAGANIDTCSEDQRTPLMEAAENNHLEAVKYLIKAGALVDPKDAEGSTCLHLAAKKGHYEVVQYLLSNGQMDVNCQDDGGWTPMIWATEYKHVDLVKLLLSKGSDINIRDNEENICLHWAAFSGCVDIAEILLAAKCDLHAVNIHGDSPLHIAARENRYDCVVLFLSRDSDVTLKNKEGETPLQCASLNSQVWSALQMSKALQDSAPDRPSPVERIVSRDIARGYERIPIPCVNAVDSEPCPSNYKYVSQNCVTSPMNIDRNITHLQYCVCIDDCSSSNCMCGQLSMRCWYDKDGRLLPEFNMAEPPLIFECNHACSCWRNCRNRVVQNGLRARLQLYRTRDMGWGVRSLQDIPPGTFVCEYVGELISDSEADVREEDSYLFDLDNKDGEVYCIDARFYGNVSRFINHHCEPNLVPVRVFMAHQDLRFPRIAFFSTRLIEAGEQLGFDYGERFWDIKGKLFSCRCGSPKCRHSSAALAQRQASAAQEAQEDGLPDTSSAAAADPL

[7] = target: Protein arginine N-methyltransferase 1 (Homo sapiens, UniProt Q99873); experiment: Inhibition of PRMT1 (unknown origin)
[8] = target: T4, Histone-arginine methyltransferase CARM1 (Homo sapiens, UniProt Q86X55); experiment: Inhibition of PRMT4 (unknown origin)
T4 sequence (Q86X55 whole entry): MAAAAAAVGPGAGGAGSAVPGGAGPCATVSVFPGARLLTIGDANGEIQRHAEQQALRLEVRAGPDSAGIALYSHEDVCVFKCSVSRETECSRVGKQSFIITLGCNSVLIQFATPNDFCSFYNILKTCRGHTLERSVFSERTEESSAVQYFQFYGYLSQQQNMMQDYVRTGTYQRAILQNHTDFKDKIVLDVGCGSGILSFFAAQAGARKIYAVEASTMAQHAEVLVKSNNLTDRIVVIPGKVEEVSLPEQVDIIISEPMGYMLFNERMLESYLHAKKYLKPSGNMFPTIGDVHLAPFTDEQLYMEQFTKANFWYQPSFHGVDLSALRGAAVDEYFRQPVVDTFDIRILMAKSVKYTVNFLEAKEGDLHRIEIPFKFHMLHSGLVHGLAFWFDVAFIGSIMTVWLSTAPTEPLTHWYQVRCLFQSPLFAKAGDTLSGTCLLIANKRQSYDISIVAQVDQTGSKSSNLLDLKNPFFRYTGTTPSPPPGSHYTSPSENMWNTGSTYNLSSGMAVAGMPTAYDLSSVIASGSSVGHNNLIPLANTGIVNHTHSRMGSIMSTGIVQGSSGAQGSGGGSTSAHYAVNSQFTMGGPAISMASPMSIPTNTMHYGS

[9] = target: Protein arginine N-methyltransferase 5 (Homo sapiens, UniProt O14744); experiment: Inhibition of PRMT5 (unknown origin)
[10] = target: Histone-lysine N-methyltransferase EZH2 (Homo sapiens, UniProt Q15910); experiment: Inhibition of EZH2 (unknown origin)
[11] = target: Histone-lysine N-methyltransferase 2A (Homo sapiens, UniProt Q03164); experiment: Inhibition of MLL1 (unknown origin)
[12] = target: Histone-lysine N-methyltransferase 2B (Homo sapiens, UniProt Q9UMN6); experiment: Inhibition of MLL4 (unknown origin)
[13] = target: DNA (cytosine-5)-methyltransferase 1 (Homo sapiens, UniProt P26358); experiment: Inhibition of DNMT1 (unknown origin)
[14] = Half life in mouse at 4 mg/kg, ip; assay type: ADME, organism-based; settings: in vivo
[15] = Cmax in mouse at 4 mg/kg, ip; assay type: ADME, organism-based; settings: in vivo
[16] = AUC (0 to last) in mouse at 4 mg/kg, ip; assay type: ADME, organism-based; settings: in vivo
[17] = AUC (0 to infinity) in mouse at 4 mg/kg, ip; assay type: ADME, organism-based; settings: in vivo
[18] = MRT (0 to t) in mouse at 4 mg/kg, ip; assay type: ADME, organism-based; settings: in vivo
[19] = Toxicity in male BALB/c/Nu/Nu mouse xenografted with human PANC-1 cells assessed as change in body weight administered as ip dose and measured every 2 days for 21 days; assay type: organism-based; settings: in vivo, 504 h, time 21 day
[20] = Toxicity in male BALB/c/Nu/Nu mouse xenografted with human PANC-1 cells assessed as drug tolerance administered as ip dose and measured every 2 days for 21 days; assay type: organism-based; settings: in vivo, 504 h, time 21 day

Chain of Histone-lysine N-methyltransferase 2A (Q03164 1-2718 limits assumed): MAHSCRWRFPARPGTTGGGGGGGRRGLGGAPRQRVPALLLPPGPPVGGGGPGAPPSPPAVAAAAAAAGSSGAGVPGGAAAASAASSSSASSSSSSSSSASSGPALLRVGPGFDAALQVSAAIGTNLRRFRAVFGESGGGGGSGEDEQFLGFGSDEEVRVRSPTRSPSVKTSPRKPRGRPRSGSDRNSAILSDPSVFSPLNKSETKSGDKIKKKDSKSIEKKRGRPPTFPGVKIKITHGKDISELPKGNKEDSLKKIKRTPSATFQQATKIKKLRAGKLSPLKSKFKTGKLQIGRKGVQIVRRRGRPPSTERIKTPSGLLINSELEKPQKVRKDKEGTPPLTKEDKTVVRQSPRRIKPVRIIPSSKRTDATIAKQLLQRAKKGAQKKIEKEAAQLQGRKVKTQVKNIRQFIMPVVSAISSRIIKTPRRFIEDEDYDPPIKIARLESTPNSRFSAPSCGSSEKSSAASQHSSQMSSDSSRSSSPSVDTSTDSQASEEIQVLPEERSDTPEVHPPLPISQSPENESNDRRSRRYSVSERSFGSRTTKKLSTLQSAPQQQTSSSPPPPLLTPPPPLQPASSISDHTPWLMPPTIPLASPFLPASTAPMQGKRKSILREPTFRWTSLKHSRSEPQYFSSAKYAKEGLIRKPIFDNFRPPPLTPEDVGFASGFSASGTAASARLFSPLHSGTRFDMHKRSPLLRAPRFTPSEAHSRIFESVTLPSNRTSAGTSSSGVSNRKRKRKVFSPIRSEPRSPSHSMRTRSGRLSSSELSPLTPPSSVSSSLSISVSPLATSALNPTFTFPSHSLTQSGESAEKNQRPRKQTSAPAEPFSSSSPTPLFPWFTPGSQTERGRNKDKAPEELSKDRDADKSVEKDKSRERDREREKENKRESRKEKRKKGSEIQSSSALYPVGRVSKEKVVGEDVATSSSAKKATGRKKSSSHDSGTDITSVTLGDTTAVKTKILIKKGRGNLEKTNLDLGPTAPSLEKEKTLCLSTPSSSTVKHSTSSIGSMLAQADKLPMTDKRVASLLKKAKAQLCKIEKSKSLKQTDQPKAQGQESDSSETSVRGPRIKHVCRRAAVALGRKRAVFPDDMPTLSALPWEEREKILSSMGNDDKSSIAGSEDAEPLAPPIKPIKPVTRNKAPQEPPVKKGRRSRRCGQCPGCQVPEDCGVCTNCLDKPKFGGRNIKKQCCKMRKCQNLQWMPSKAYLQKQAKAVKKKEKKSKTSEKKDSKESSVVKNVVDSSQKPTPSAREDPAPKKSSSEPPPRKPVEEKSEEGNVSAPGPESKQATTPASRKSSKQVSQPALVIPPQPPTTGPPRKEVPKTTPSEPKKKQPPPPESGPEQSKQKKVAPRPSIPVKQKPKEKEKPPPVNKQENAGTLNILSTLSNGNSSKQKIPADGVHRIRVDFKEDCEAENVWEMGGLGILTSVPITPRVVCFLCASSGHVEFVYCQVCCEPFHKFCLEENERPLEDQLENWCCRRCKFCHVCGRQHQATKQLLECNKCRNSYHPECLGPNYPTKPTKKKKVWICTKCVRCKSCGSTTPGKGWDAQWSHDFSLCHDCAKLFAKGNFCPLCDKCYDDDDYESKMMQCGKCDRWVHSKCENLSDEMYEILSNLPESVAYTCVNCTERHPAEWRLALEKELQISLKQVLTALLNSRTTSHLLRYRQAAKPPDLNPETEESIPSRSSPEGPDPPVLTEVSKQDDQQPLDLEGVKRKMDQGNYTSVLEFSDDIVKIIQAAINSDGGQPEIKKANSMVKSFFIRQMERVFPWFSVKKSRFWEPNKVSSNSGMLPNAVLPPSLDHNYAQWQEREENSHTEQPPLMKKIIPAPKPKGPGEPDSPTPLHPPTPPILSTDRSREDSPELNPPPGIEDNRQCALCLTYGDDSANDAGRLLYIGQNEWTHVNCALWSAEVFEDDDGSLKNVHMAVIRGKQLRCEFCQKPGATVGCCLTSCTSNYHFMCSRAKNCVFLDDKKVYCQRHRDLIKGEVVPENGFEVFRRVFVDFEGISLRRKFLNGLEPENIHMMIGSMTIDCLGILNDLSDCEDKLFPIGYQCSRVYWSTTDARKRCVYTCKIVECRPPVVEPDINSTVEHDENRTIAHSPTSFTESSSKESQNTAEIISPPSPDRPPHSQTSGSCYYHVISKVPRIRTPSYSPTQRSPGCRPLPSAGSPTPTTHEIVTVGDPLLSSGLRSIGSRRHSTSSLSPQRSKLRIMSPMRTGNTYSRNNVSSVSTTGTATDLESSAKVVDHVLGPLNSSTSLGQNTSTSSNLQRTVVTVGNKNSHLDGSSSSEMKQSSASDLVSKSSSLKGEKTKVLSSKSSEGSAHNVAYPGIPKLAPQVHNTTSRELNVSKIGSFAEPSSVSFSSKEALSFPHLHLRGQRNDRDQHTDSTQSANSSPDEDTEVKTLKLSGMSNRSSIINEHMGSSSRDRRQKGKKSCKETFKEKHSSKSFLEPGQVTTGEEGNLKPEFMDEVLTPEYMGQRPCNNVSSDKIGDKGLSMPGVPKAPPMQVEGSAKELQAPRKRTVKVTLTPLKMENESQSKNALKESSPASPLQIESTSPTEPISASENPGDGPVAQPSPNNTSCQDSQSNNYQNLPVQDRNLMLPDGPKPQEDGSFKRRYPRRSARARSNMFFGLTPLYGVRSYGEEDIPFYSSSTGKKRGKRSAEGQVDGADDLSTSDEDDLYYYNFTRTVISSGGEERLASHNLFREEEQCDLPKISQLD
Chain of Histone-lysine N-methyltransferase 2A (Q03164 2719-3969 limits assumed): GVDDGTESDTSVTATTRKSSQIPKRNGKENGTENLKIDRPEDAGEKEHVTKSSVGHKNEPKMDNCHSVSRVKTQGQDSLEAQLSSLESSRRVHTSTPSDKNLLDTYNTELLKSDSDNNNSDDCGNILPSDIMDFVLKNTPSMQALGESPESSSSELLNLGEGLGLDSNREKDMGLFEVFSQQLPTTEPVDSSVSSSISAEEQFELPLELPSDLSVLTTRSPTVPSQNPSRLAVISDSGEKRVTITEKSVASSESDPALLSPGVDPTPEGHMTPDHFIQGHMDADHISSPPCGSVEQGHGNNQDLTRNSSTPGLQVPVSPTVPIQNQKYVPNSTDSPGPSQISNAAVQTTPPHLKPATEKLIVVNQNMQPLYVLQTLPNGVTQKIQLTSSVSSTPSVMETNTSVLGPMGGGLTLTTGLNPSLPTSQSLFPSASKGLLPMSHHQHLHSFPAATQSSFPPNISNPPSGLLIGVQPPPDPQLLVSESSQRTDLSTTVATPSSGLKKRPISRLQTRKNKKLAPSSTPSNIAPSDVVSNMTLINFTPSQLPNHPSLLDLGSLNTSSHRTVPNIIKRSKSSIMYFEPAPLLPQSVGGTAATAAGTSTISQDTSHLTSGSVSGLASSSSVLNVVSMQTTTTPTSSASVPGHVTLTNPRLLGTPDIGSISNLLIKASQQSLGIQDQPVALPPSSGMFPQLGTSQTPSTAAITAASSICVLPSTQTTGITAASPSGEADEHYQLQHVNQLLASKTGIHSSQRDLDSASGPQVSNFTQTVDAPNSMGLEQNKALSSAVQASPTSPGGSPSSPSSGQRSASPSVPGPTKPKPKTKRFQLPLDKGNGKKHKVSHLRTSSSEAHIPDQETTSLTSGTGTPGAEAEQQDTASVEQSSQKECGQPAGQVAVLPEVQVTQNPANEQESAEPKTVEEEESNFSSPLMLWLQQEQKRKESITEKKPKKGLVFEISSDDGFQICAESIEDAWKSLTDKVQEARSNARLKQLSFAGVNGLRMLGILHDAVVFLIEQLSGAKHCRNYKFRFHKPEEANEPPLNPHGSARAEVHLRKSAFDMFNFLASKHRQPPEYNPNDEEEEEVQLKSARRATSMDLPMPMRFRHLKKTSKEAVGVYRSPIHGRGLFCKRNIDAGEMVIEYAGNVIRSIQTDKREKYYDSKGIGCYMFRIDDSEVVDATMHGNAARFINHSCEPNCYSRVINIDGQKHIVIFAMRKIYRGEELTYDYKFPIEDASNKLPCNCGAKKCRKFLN
Chain of Protein arginine N-methyltransferase 1 (Q99873 whole entry): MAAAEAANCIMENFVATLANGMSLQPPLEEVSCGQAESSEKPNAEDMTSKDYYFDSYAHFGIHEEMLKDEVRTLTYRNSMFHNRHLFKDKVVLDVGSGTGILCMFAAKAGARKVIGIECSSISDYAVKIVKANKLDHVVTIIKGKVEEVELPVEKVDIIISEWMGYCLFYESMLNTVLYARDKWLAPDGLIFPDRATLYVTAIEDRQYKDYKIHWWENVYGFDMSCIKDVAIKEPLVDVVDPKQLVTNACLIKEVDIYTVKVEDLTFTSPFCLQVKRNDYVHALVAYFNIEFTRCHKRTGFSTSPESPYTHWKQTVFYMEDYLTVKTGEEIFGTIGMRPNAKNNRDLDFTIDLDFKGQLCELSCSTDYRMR
Chain of Protein arginine N-methyltransferase 5 (O14744 whole entry): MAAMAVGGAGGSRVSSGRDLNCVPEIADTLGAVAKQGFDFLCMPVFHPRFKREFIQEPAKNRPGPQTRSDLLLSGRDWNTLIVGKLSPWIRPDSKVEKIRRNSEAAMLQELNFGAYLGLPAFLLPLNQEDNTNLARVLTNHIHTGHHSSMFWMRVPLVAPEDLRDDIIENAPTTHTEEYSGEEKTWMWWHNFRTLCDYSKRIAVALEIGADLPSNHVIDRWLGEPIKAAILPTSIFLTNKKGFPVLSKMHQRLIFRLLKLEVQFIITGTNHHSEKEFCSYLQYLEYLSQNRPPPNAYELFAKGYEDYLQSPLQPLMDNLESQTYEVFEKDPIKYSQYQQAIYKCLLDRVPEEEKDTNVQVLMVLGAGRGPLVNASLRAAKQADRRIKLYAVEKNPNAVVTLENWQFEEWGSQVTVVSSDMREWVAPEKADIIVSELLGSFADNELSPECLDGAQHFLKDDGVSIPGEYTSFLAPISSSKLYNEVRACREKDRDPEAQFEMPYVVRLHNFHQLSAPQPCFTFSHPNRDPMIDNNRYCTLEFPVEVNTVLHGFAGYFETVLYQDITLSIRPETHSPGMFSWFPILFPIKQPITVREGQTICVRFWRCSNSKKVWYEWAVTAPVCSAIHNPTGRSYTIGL

COc1cc2c(NC3CCN(C(C)C)CC3)nc(N3CCC(F)(F)CC3)nc2cc1OCCCN1CCCC1
inhibition in vivo at 4 mg/kg [1]: 7.34% | IC50 [2]: 5.74 µM | IC50 [3]: 3.31 µM

COc1cc(F)c(-c2cc(Cn3cnc4c(N)ncnc43)c(N3CCC[C@](N)([C@H](O)CF)C3)cn2)cc1F
IC50 [4]: < 0.1 µM

COc1cc2nc(C#N)nc(NC3CCN(Cc4ccccc4)CC3)c2cc1OC
IC50 [5]: > 10 µM | IC50 [4]: 2.65 µM

CNc1nc2cc(OCCCN3CCCC3)c(OC)cc2n1C(C)C
IC50 [5]: < 0.1 µM

C=CC(=O)N(C)c1nc(NC2CCN(C(C)C)CC2)c2cc(OC)c(OCCCN3CCCC3)cc2n1
IC50 [5]: 0.0085 µM

COc1cc2c(NC3CCN(C(C)C)CC3)nc(C#N)nc2cc1OCCCN1CCCC1
IC50 [6]: 0.41 µM | IC50 [7]: 6.44 µM | IC50 [8]: > 10 µM | IC50 [9]: > 10 µM | IC50 [10]: > 10 µM | IC50 [11]: > 10 µM | IC50 [12]: > 10 µM | IC50 [13]: > 10 µM | half-life [14]: 16 h | Cmax [15]: 732 ng/mL | AUClast [16]: 1987 ng·h/mL | AUC [17]: 2960 ng·h/mL | MRT last [18]: 20.3 h | Activity [19]: Non-Toxic | Activity [20]: Non-Toxic
